Measured values from patent publication US11090319B2, “Therapeutic uses of pharmaceutical compositions comprising cyclic boronic acid ester derivatives” (Melinta Subsidiary Corp., priority 2010, dated 2021).
Where two headings read alike, the source gives them in different places.

Experiments:
[1] = test system: strains expressing class A ESBLs; type: cell-based; settings: tigemonam at 4 μg/mL; for MPC4 TEM-10 EC1009: strain EC1009 TEM-10; for MPC4 CTX-M-14 KP1005: strain KP1005 CTX-M-14; for MPC4 CTX-M-15 KP1009: strain KP1009 CTX-M-15; for MPC4 SHV-12 KP1010: strain KP1010 SHV-12; for MPC4 SHV-18 KP1012: strain KP1012 SHV-18; for MPC4 TEM-10 ec302: strain ec302 TEM-10; for MPC4 TEM-26 ec304: strain ec304 TEM-26; for MPC4 SHV-5 ec308: strain ec308 SHV-5
Procedure: Selected β-lactamase inhibitors were also tested for their ability to potentiate the monobactam tigemonam.

[2] = test system: strains expressing KPC alone or in combination with additional beta-lactamases; test: microbe, parasite or virus in culture; type: cell-based

SMILES | MPC4 TEM-10 EC1009 [1] | MPC4 CTX-M-14 KP1005 [1] | MPC4 CTX-M-15 KP1009 [1] | MPC4 SHV-12 KP1010 [1] | MPC4 SHV-18 KP1012 [1] | MPC4 TEM-10 ec302 [1] | MPC4 TEM-26 ec304 [1] | MPC4 SHV-5 ec308 [1] | further results
N[C@@H](C(=O)N[C@H]1CC[C@@H](CC(=O)O)OB1O)c1ccccc1 [Compound 9] | Z (MPC@4 of greater than 10 μg/mL) | Z (MPC@4 of greater than 10 μg/mL) | Z (MPC@4 of greater than 10 μg/mL) | Z (MPC@4 of greater than 10 μg/mL) | Z (MPC@4 of greater than 10 μg/mL) | Z (MPC@4 of greater than 10 μg/mL) | Z (MPC@4 of greater than 10 μg/mL) | Z (MPC@4 of greater than 10 μg/mL) | 
O=C(O)C[C@@H]1CC[C@H](NC(=O)NCc2ccccc2)B(O)O1 [Compound 18] | X (MPC@4 of less than 2 μg/mL) | X (MPC@4 of less than 2 μg/mL) | X (MPC@4 of less than 2 μg/mL) | X (MPC@4 of less than 2 μg/mL) | X (MPC@4 of less than 2 μg/mL) | Y (MPC@4 of 2 μg/mL to 10 μg/mL) | Y (MPC@4 of 2 μg/mL to 10 μg/mL) | Y (MPC@4 of 2 μg/mL to 10 μg/mL) | 
O=C(O)CC1C=CC[C@H](NC(=O)Cc2cccs2)B(O)O1 (stereo partly drawn) [Compound 64, 2-((3R)-2-hydroxy-3-(2-(thiophen-2-yl)acetamido)-2,3,4,7-tetrahydro-1,2-oxaborepin-7-yl)acetic acid] | Y (MPC@4 of 2 μg/mL to 10 μg/mL) | Z (MPC@4 of greater than 10 μg/mL) | Y (MPC@4 of 2 μg/mL to 10 μg/mL) | X (MPC@4 of less than 2 μg/mL) | Y (MPC@4 of 2 μg/mL to 10 μg/mL) | Z (MPC@4 of greater than 10 μg/mL) | Z (MPC@4 of greater than 10 μg/mL) | Y (MPC@4 of 2 μg/mL to 10 μg/mL) | 
O=C(O)C[C@@H]1C=CC[C@H](NC(=O)Cc2cccs2)B(O)O1 [Compound 67, 2-((3R,7R)-2-hydroxy-3-(2-(thiophen-2-yl)acetamido)-2,3,4,7-tetrahydro-1,2-oxaborepin-7-yl)acetic acid] | Z (MPC@4 of greater than 10 μg/mL) | Z (MPC@4 of greater than 10 μg/mL) | Y (MPC@4 of 2 μg/mL to 10 μg/mL) | Y (MPC@4 of 2 μg/mL to 10 μg/mL) | Y (MPC@4 of 2 μg/mL to 10 μg/mL) | Z (MPC@4 of greater than 10 μg/mL) | Z (MPC@4 of greater than 10 μg/mL) | Z (MPC@4 of greater than 10 μg/mL) | 
O=C(O)C[C@H]1C=CC[C@H](NC(=O)Cc2cccs2)B(O)O1 [Compound 68, 2-((3R,7S)-2-hydroxy-3-(2-(thiophen-2-yl)acetamido)-2,3,4,7-tetrahydro-1,2-oxaborepin-7-yl)acetic acid] | Y (MPC@4 of 2 μg/mL to 10 μg/mL) | Y (MPC@4 of 2 μg/mL to 10 μg/mL) | Y (MPC@4 of 2 μg/mL to 10 μg/mL) | X (MPC@4 of less than 2 μg/mL) | X (MPC@4 of less than 2 μg/mL) | Y (MPC@4 of 2 μg/mL to 10 μg/mL) | Y (MPC@4 of 2 μg/mL to 10 μg/mL) | Y (MPC@4 of 2 μg/mL to 10 μg/mL) | 
C[C@@H](O)[C@H]1C(=O)N2C(C(=O)O)=C(S[C@@H]3CN[C@H](CNS(N)(=O)=O)C3)[C@H](C)[C@H]12 [Doripenem] |  |  |  |  |  |  |  |  | MIC ([2]; Enterobacter cloacae, Enterobacter cloacae ECL1058, KPC-3, SHV-11, TEM-1, Compound 5 0 mg/L, read-out: MIC of Doripenem): > 4 µg/mL; MIC ([2]; Enterobacter cloacae, Enterobacter cloacae ECL1059, KPC-3, SHV-12, TEM-1, Compound 5 0 mg/L, read-out: MIC of Doripenem): 0.5 to 4 µg/mL; MIC ([2]; Escherichia coli, Escherichia coli EC1007, KPC-3, Compound 5 0 mg/L, read-out: MIC of Doripenem): 0.5 to 4 µg/mL; MIC ([2]; Klebsiella oxytoca, Klebsiella oxytoca KX1017, KPC-2, OXA-2, SHV-30, Compound 5 0 mg/L, read-out: MIC of Doripenem): 0.5 to 4 µg/mL; MIC ([2]; Klebsiella oxytoca, Klebsiella oxytoca KX1018, KPC-2, SHV-40, OXY-1, Compound 5 0 mg/L, read-out: MIC of Doripenem): 0.5 to 4 µg/mL; MIC ([2]; Klebsiella oxytoca, Klebsiella oxytoca KX1019, KPC-2 OXA-2, Compound 5 0 mg/L, read-out: MIC of Doripenem): 0.5 to 4 µg/mL; MIC ([2]; Klebsiella pneumoniae, Klebsiella pneumoniae KP 1004, KPC-2, Compound 5 0 mg/L, read-out: MIC of Doripenem): 0.5 to 4 µg/mL; MIC ([2]; Klebsiella pneumoniae, Klebsiella pneumoniae KP 1008, KPC-2, Compound 5 0 mg/L, read-out: MIC of Doripenem): 0.5 to 4 µg/mL; MIC ([2]; Klebsiella pneumoniae, Klebsiella pneumoniae KP1082, KPC-2 SHV-1, Compound 5 0 mg/L, read-out: MIC of Doripenem): 0.5 to 4 µg/mL; MIC ([2]; Klebsiella pneumoniae, Klebsiella pneumoniae KP1083, KPC-3, SHV-1, TEM-1, Compound 5 0 mg/L, read-out: MIC of Doripenem): > 4 µg/mL; MIC ([2]; Klebsiella pneumoniae, Klebsiella pneumoniae KP1084, KPC-3, SHV-11, TEM-1, Compound 5 0 mg/L, read-out: MIC of Doripenem): > 4 µg/mL; MIC ([2]; Klebsiella pneumoniae, Klebsiella pneumoniae KP 1087, KPC-2, CTX-M-15, SHV-11, TEM-1, Compound 5 0 mg/L, read-out: MIC of Doripenem): > 4 µg/mL; MIC ([2]; Klebsiella pneumoniae, Klebsiella pneumoniae KP1088, KPC-3, SHV-11, TEM-1, Compound 5 0 mg/L, read-out: MIC of Doripenem): 0.5 to 4 µg/mL
C[C@@H](O)[C@H]1C(=O)N2C(C(=O)O)=C(S[C@@H]3CN[C@H](C(=O)Nc4cccc(C(=O)O)c4)C3)[C@H](C)[C@H]12 [Ertapenem] |  |  |  |  |  |  |  |  | MIC ([2]; Enterobacter cloacae, Enterobacter cloacae ECL1058, KPC-3, SHV-11, TEM-1, Compound 5 0 mg/L, read-out: MIC of Ertapenem): > 4 µg/mL; MIC ([2]; Enterobacter cloacae, Enterobacter cloacae ECL1059, KPC-3, SHV-12, TEM-1, Compound 5 0 mg/L, read-out: MIC of Ertapenem): 0.5 to 4 µg/mL; MIC ([2]; Escherichia coli, Escherichia coli EC1007, KPC-3, Compound 5 0 mg/L, read-out: MIC of Ertapenem): > 4 µg/mL; MIC ([2]; Klebsiella oxytoca, Klebsiella oxytoca KX1017, KPC-2, OXA-2, SHV-30, Compound 5 0 mg/L, read-out: MIC of Ertapenem): > 4 µg/mL; MIC ([2]; Klebsiella oxytoca, Klebsiella oxytoca KX1018, KPC-2, SHV-40, OXY-1, Compound 5 0 mg/L, read-out: MIC of Ertapenem): > 4 µg/mL; MIC ([2]; Klebsiella oxytoca, Klebsiella oxytoca KX1019, KPC-2 OXA-2, Compound 5 0 mg/L, read-out: MIC of Ertapenem): > 4 µg/mL; MIC ([2]; Klebsiella pneumoniae, Klebsiella pneumoniae KP 1004, KPC-2, Compound 5 0 mg/L, read-out: MIC of Ertapenem): > 4 µg/mL; MIC ([2]; Klebsiella pneumoniae, Klebsiella pneumoniae KP 1008, KPC-2, Compound 5 0 mg/L, read-out: MIC of Ertapenem): > 4 µg/mL; MIC ([2]; Klebsiella pneumoniae, Klebsiella pneumoniae KP1082, KPC-2 SHV-1, Compound 5 0 mg/L, read-out: MIC of Ertapenem): 0.5 to 4 µg/mL; MIC ([2]; Klebsiella pneumoniae, Klebsiella pneumoniae KP1083, KPC-3, SHV-1, TEM-1, Compound 5 0 mg/L, read-out: MIC of Ertapenem): > 4 µg/mL; MIC ([2]; Klebsiella pneumoniae, Klebsiella pneumoniae KP1084, KPC-3, SHV-11, TEM-1, Compound 5 0 mg/L, read-out: MIC of Ertapenem): > 4 µg/mL; MIC ([2]; Klebsiella pneumoniae, Klebsiella pneumoniae KP 1087, KPC-2, CTX-M-15, SHV-11, TEM-1, Compound 5 0 mg/L, read-out: MIC of Ertapenem): > 4 µg/mL; MIC ([2]; Klebsiella pneumoniae, Klebsiella pneumoniae KP1088, KPC-3, SHV-11, TEM-1, Compound 5 0 mg/L, read-out: MIC of Ertapenem): > 4 µg/mL
C[C@@H](O)[C@H]1C(=O)N2C(C(=O)O)=C(SCCN=CN)C[C@H]12 [Imipenem] |  |  |  |  |  |  |  |  | MIC ([2]; Escherichia coli, read-out: MIC of Imipenem): > 4 µg/mL
C[C@@H](O)[C@H]1C(=O)N2C(C(=O)O)=C(S[C@@H]3CN[C@H](C(=O)N(C)C)C3)[C@H](C)[C@H]12 [Meropenem] |  |  |  |  |  |  |  |  | MIC ([2]; Enterobacter cloacae, read-out: MIC of Meropenem, Enterobacter cloacae ECL1058, KPC-3, SHV-11, TEM-1, Compound 5 0 mg/L): > 4 µg/mL; MIC ([2]; Enterobacter cloacae, read-out: MIC of Meropenem, Enterobacter cloacae ECL1059, KPC-3, SHV-12, TEM-1, Compound 5 0 mg/L): 0.5 to 4 µg/mL; MIC ([2]; Escherichia coli, read-out: MIC of Meropenem, Escherichia coli EC1007, KPC-3, Compound 5 0 mg/L): 0.5 to 4 µg/mL; MIC ([2]; Klebsiella oxytoca, read-out: MIC of Meropenem, Klebsiella oxytoca KX1017, KPC-2, OXA-2, SHV-30, Compound 5 0 mg/L): 0.5 to 4 µg/mL; MIC ([2]; Klebsiella oxytoca, read-out: MIC of Meropenem, Klebsiella oxytoca KX1018, KPC-2, SHV-40, OXY-1, Compound 5 0 mg/L): 0.5 to 4 µg/mL; MIC ([2]; Klebsiella oxytoca, read-out: MIC of Meropenem, Klebsiella oxytoca KX1019, KPC-2 OXA-2, Compound 5 0 mg/L): 0.5 to 4 µg/mL; MIC ([2]; Klebsiella pneumoniae, read-out: MIC of Meropenem, Klebsiella pneumoniae KP 1004, KP C-2, Compound 5 0 mg/L): > 4 µg/mL; MIC ([2]; Klebsiella pneumoniae, read-out: MIC of Meropenem, Klebsiella pneumoniae KP 1008, KPC-2, Compound 5 0 mg/L): 0.5 to 4 µg/mL; MIC ([2]; Klebsiella pneumoniae, read-out: MIC of Meropenem, Klebsiella pneumoniae KP1082, KPC-2 SHV-1, Compound 5 0 mg/L): 0.5 to 4 µg/mL; MIC ([2]; Klebsiella pneumoniae, read-out: MIC of Meropenem, Klebsiella pneumoniae KP1083, KPC-3, SHV-1, TEM-1, Compound 5 0 mg/L): > 4 µg/mL; MIC ([2]; Klebsiella pneumoniae, read-out: MIC of Meropenem, Klebsiella pneumoniae KP1084, KPC-3, SHV-11, TEM-1, Compound 5 0 mg/L): > 4 µg/mL; MIC ([2]; Klebsiella pneumoniae, read-out: MIC of Meropenem, Klebsiella pneumoniae KP 1087, KPC-2, CTX-M-15, SHV-11, TEM-1, Compound 5 0 mg/L): > 4 µg/mL; MIC ([2]; Klebsiella pneumoniae, read-out: MIC of Meropenem, Klebsiella pneumoniae KP1088, KPC-3, SHV-11, TEM-1, Compound 5 0 mg/L): > 4 µg/mL
